Assay results published in patent US7132420B2, “Aspartic protease inhibitors” (The United States of America as represented by the …, priority 1999, dated 2006).
Like-named read-outs stand apart in the source and are kept apart here.

Key:
HIV-1 protease = HIV-1 protease (Human immunodeficiency virus type 1 group M subtype B, UniProt P04585); experiment: HIV protease assay (Ki); type: biochemical; conditions: for HIV-1 protease % inhibition: Table 1 Ki column
From the text: (§1) This example illustrates the HIV-1 protease inhibition activity (Ki), HIV-1 antiviral data (EC50), and the toxicity against normal cells (IC50), for particular compounds of formula (I). The HIV protease assay was done according to the protocol described in Kageyama et al, Antimicrob. Agents Chemother., 37, 272 (1993). The HIV antiviral assay was done according to the protocol described in Weislow et al., J. National Cancer Inst. 81, 577 (1989).
(§2) The HIV protease assay was done according to the protocol described in Example 35. The plasmepsin II assay was done according to the protocol used in Silva et al., Proc. Nat. Acad. Sci. USA, 93, pp. 10034–10039, September 1996 (Biochemstry). The cathepsin D assay was done according to the protocol described in Gulnik et al., FEBS Letters, 413, 379–384 (1997). The compounds illustrated in Table 2 are of the general formula (II), as described in Example 35.

HIV-1 = experiment: HIV antiviral assay (EC50); type: cell-based
From the text: The HIV protease assay was done according to the protocol described in Kageyama et al, Antimicrob. Agents Chemother., 37, 272 (1993). The HIV antiviral assay was done according to the protocol described in Weislow et al., J. National Cancer Inst. 81, 577 (1989).

normal cells = experiment: toxicity against normal cells (IC50); type: cell-based
From the text: as §1

cathepsin D = cathepsin D (Homo sapiens, UniProt P07339); experiment: cathepsin D assay (Ki); type: biochemical; conditions: for Ki: Table 2, read-out: Cath D Ki
From the text: as §2

plasmepsin II = plasmepsin II (Plasmodium falciparum, UniProt P46925); experiment: biochemical; type: biochemical; conditions: for Ki: Table 2, read-out: Pls II Ki
From the text: as §2

[1] = Table 1, in nM, read-out: HIV-1 Ki
[2] = Human immunodeficiency virus 1, Table 1

Chain of cathepsin D (P07339 65-412): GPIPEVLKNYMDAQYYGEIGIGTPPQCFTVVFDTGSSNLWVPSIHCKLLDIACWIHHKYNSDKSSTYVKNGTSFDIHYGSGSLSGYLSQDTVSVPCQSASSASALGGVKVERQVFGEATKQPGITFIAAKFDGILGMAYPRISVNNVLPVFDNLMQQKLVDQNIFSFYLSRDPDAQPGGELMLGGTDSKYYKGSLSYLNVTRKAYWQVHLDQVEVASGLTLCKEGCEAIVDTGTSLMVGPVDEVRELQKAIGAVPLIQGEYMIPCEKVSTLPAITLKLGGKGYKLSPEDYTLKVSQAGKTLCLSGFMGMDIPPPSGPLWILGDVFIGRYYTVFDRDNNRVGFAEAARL
Chain of plasmepsin II (P46925 125-453): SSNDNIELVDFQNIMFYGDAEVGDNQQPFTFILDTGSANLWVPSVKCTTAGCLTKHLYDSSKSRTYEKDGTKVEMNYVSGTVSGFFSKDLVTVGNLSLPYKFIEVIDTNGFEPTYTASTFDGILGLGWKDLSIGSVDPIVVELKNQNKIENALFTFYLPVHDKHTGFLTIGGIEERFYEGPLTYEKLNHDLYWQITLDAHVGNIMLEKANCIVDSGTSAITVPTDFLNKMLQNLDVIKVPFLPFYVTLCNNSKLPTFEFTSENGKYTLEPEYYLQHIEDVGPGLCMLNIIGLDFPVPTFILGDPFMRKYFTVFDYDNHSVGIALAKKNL

| SMILES | Ki (HIV-1 protease; Table 1, read-out: HIV-1 Ki) [nM] | EC50 (HIV-1; Table 1) [nM] | IC50 (normal cells; Table 1) [nM] | other results |
| --- | --- | --- | --- | --- |
| Cc1cccc(C)c1OCC(=O)N[C@@H](Cc1ccccc1)[C@@H](O)C[C@H](CC(C)C)NC(=O)c1cccc(N)c1 [(32)] | 0.331 | 2000 | > 100000 | inhibitory activity against HIV-1 protease, in words (HIV-1 protease): generally potent; Ki (HIV-1 protease; Table 2, read-out: HIV-1 Ki): 0.33 nM; EC50 (HIV-1; Table 2): 2000 nM; IC50 (normal cells; Table 2): > 100000 nM; inhibitory activity against cathepsin D, in words (cathepsin D): generally potent; Ki (cathepsin D): 7.4 nM; inhibitory activity against plasmepsin II, in words (plasmepsin II): generally potent; Ki (plasmepsin II): 18 nM |
| CC(C)C[C@@H](C[C@H](O)[C@H](Cc1ccccc1)NC(=O)[C@H](C)NC(=O)OCc1ccccc1)NC(=O)c1cccc(O)c1 [(61)] |  | > 10000 |  | Ki (HIV-1 protease; [1]): 2 nM |
| Cc1cccc(C)c1OCC(=O)N[C@@H](Cc1ccccc1)[C@@H](O)C[C@H](CC(C)C)NC(=O)[C@@H](N)C(C)C [(49)] |  | 8000 | > 100000 | Ki (HIV-1 protease; [1]): 4 nM |
| COc1ccc(C(=O)N[C@H](C(=O)N[C@@H](CC(C)C)C[C@H](O)[C@H](Cc2ccccc2)NC(=O)COc2c(C)cccc2C)C(C)C)cc1 [(52), (2S,3S,5S)-2-[N-[2-(2,6.-dimethylphenoxy)acetyl]amino]-5-[N-[[N′-(p-methoxyphenylcarbonyl)]valinyl]amino]-3-hydroxy-7-methyl-1-phenyloctane] | 0.03 | 200 | > 93000 |  |
| Cc1cccc(C)c1OCC(=O)N[C@@H](CC(C)C)C[C@H](O)[C@H](Cc1ccccc1)NC(=O)OCc1ccccc1 [(40), (2S,3S,5S)-2-[N-(benzyloxycarbonyl)amino]-5-[N-[2-(2,6-dimethylphenoxy)acetyl]amino]-3-hydroxy-7-methyl-1-phenyloctane] | 0.197 |  |  | HIV-1 EC50 (μM) (HIV-1; Table 1): inactive |
| Cc1cccc(C)c1OCC(=O)N[C@@H](Cc1ccccc1)[C@@H](O)C[C@H](CC(C)C)NC(=O)[C@H](CC(N)=O)NC(=O)c1ccc2ccccc2n1 [(65)] | 0.0382 |  |  |  |
| Cc1cccc(C)c1OCC(=O)N[C@@H](CC(C)C)C[C@H](O)[C@H](Cc1ccccc1)NC(=O)c1cccc(O)c1C [(42), (2S,3S,5S)-5-[N-[2-(2,6-dimethylphenoxy)acetyl]amino]-2-[N-(3-hydroxy-2-methylbenzoyl)amino]-3-hydroxy-7-methyl-1-phenyloctane] |  |  | > 100000 | Ki (HIV-1 protease): 0.311 nM; EC50 (HIV-1; [2]): 750 nM |
| CC(C)C[C@@H](C[C@H](O)[C@H](Cc1ccccc1)NC(=O)CNC(=O)OCc1ccccc1)NC(=O)c1cccc(O)c1 [(59)] |  | > 10000 |  | Ki (HIV-1 protease; [1]): 108 nM |
| CC(=O)N[C@H](C(=O)N[C@@H](CC(C)C)C[C@H](O)[C@H](Cc1ccccc1)NC(=O)COc1c(C)cccc1C)C(C)C [(50)] | 0.014 | 300 | > 100000 |  |
| Cc1cccc(C)c1OCC(=O)N[C@@H](Cc1ccccc1)[C@@H](O)C[C@H](CC(C)C)NC(=O)C1CCN(C(=O)OCc2ccccc2)CC1 [(48)] |  |  |  | Ki (HIV-1 protease; [1]): 113 nM |
| Cc1cccc(C)c1OCC(=O)N[C@@H](Cc1ccccc1)[C@@H](O)C[C@H](CC(C)C)NC(=O)OCc1cncs1 [(57), (2S,3S,5S)-2-[N-[2-(2,6-dimethylphenoxy)acetyl]amino]-5-[N-[(thiazol-5-yl-methoxy)carbonyl]amino]-3-hydroxy-7-methyl-1-phenyloctane] |  |  | 10000 | Ki (HIV-1 protease): 0.094 nM; EC50 (HIV-1; [2]): 1000 nM |
| Cc1cccc(C)c1OCC(=O)N[C@@H](CC(C)C)C[C@H](O)[C@H](Cc1ccccc1)NC(=O)O[C@H]1CCOC1 [(41), (2S,3S,5S)-5-[N-[2-(2,6-dimethylphenoxy)acetyl]amino]-2-[N-(3S-terahydrofuranyloxycarbonyl]amino]-3-hydroxy-7-methyl-1-phenyloctane] | 0.222 | > 1000 | > 100000 |  |
| CC(C)CC(CC(O)C(Cc1ccccc1)NC(=O)C(C(C)C)N1CCCNC1=O)NC(=O)OC(C)(C)C (centres unmarked) [(44)] | 1.49 |  |  | HIV-1 EC50 (μM) (HIV-1; Table 1): in-active |
| CC(C)C[C@@H](C[C@H](O)[C@H](Cc1ccccc1)NC(=O)[C@H](Cc1ccccc1)NC(=O)OCc1ccccc1)NC(=O)c1cccc(O)c1 [(67)] |  |  |  | HIV-1 EC50 (μM) (HIV-1; Table 1): not active; Ki (plasmepsin II): 17 nM |
| CC(C)C[C@@H](C[C@H](O)[C@H](Cc1ccccc1)NC(=O)OCc1ccccc1)NC(=O)[C@@H](C(C)C)N1CCCNC1=O [(33)] |  |  |  | HIV-1 protease % inhibition (HIV-1 protease; @0.5 μM): 38%; HIV-1 protease % inhibition (HIV-1 protease; @1 μM): 65% |
| Cc1cccc(C)c1OCC(=O)N[C@@H](Cc1ccccc1)[C@@H](O)C[C@H](CC(C)C)NC(=O)c1cccc(O)c1 [(58)] |  | 2000 | 10000 | Ki (HIV-1 protease; [1]): 1.2 nM |

| SMILES | Ki (HIV-1 protease; Table 1, read-out: HIV-1 Ki) [nM] | EC50 (HIV-1; Table 1) [nM] | IC50 (normal cells; Table 1) [nM] | other results |
| --- | --- | --- | --- | --- |
| Cc1cccc(C)c1OCC(=O)N[C@@H](Cc1ccccc1)[C@@H](O)C[C@H](CC(C)C)NC(=O)[C@H](C)NC(=O)OCc1ccccc1 [(56), (2S,3S,5S)-5-[N-[N′-(benzyloxycarbonyl)alaninyl]amino]-2-[N-[2-(2,6-dimethylphenoxy)acetyl]amino]-3-hydroxy-7-methyl-1-phenyloctane] | 0.195 | 1000 | > 100000 |  |
| Cc1cccc(C)c1OCC(=O)N[C@@H](Cc1ccccc1)[C@@H](O)C[C@H](CC(C)C)NC(=O)[C@@H](NS(C)(=O)=O)C(C)C [(51), (2S,3S,5S)-2-[N-[2-(2,6-dimethylphenoxy)acetyl]amino]-5-[N-[[N′-(methylsulfonyl)]valinyl]amino]-3-hydroxy-7-methyl-1-phenyloctane] | 0.034 | 700 | > 100000 |  |
| Cc1cccc(C)c1OCC(=O)N[C@@H](Cc1ccccc1)[C@@H](O)C[C@H](CC(C)C)NC(=O)N1CCOCC1 [(27)] |  | > 50000 |  | Ki (HIV-1 protease; [1]): 37 nM; Ki (HIV-1 protease; Table 2, read-out: HIV-1 Ki): 0.37 nM; EC50 (HIV-1; Table 2): > 50000 nM; Ki (cathepsin D): 6.1 nM; Ki (plasmepsin II): 76 nM |
| COc1ccc(S(=O)(=O)N[C@H](C(=O)N[C@@H](CC(C)C)C[C@H](O)[C@H](Cc2ccccc2)NC(=O)COc2c(C)cccc2C)C(C)C)cc1 [(54)] | 0.0068 | 200 | 84000 |  |
| Cc1cccc(C)c1OCC(=O)N[C@@H](Cc1ccccc1)[C@@H](O)C[C@H](CC(C)C)NC(=O)C1CCCN(C(=O)OCc2ccccc2)C1 (some centres unmarked) [(47)] | 1.5 ± 0.066 |  |  |  |
| CC(C)C[C@@H](C[C@H](O)[C@H](Cc1ccccc1)NC(=O)N1CCOCC1)NC(=O)[C@H](C(C)C)N1CCCNC1=O [(36)] | 0.571 | 2000 | > 100000 |  |
| CC[C@H](C)[C@H](NC(=O)OCc1ccccc1)C(=O)N[C@@H](Cc1ccccc1)[C@@H](O)C[C@H](CC(C)C)NC(=O)c1cccc(O)c1 [(62)] | 0.157 | 1400 | > 10000 | Ki (HIV-1 protease; Table 2, read-out: HIV-1 Ki): 0.157 nM; Ki (plasmepsin II): 1.2 nM |
| CC(C)(C)OC(=O)N[C@@H](Cc1ccccc1)C[C@H](O)[C@H](Cc1ccccc1)NC(=O)OCc1ccccc1 [(53), reference compound] |  | > 10000 | > 100000 | Ki (HIV-1 protease; [1]): 1 nM |
| Cc1c(O)cccc1C(=O)N[C@@H](Cc1ccccc1)[C@@H](O)C[C@H](CC(C)C)NC(=O)[C@H](C(C)C)N1CCCNC1=O [(37), (2S,3S,5S)-2-[N-(3-hydroxy-2-methylbenzoyl)amino]-5-[N-[[3-methyl-2S-(2-oxo-tetrahydropyrimidin-1-yl)]butyryl]amino]-3-hydroxy-7-methyl-1-phenyloctane] | 0.104 ± 0.01 | 200 | > 10000 |  |
| Cc1cccc(C)c1OCC(=O)N[C@@H](Cc1ccccc1)[C@@H](O)C[C@H](CC(C)C)NC(=O)OC(C)(C)C [(15), (2S,3S,5S)-5-[N-tert-butyloxycarbonylamino]-2-[N-[2-(2,6-dimethylphenoxy)acetyl]amino]-3-hydroxy-7-methyl-1-phenyloctane] |  |  |  | Ki (HIV-1 protease): 0.009 nM; Ki (HIV-1 protease; read-out: HIV-1 Ki, Table 2): 0.009 nM; Ki (cathepsin D): 6.1 nM; Ki (plasmepsin II): 210 nM |
| Cc1cccc(C)c1OCC(=O)N[C@@H](Cc1ccccc1)[C@@H](O)C[C@H](CC(C)C)NC(=O)[C@@H]1CCNC(=O)N1 [(29), (2S,3S,5S)-2-[N-[2-(2,6-dimethylphenoxy)acetyl]amino]-5-[N-[2S-(2-oxopyrimidinyl)-4-carbonyl]amino]-3-hydroxy-7-methyl-1-phenyloctane] |  |  |  | Ki (HIV-1 protease; [1]): 16 nM; Ki (HIV-1 protease; Table 2, read-out: HIV-1 Ki): 0.16 nM; HIV-1 EC50 (μM) (HIV-1; Table 1): in-active; HIV-1 EC50 (μM) (HIV-1; Table 2): notactive; Ki (cathepsin D): 305 nM; Ki (plasmepsin II): 3500 nM |
| CC(C)C[C@@H](C[C@H](O)[C@H](Cc1ccccc1)NC(=O)OCc1ccccc1)NC(=O)[C@H](C(C)C)N1CCCNC1=O [(18)] | 0.065 ± 0.016 | 600 | > 100000 |  |
| Cc1cccc(C)c1OCC(=O)N[C@@H](Cc1ccccc1)[C@@H](O)C[C@H](CC(C)C)NC(=O)CC(C)C [(55)] |  | 10000 | > 100000 | Ki (HIV-1 protease; [1]): 1.5 nM |
| Cc1cccc(C)c1OCC(=O)NC(Cc1ccccc1)C(O)CC(CC(C)C)NC(=O)C(C(C)C)N1CCCN(C)C1=O (centres unmarked) [(68)] |  |  | 5000 |  |
| CC(C)C[C@@H](C[C@H](O)[C@H](Cc1ccccc1)NC(=O)[C@@H](NC(=O)OCc1ccccc1)C(C)C)NC(=O)c1cccc(O)c1 [Compound (60)] | 0.198 | 910 | > 10000 | Ki (HIV-1 protease; Table 2, read-out: HIV-1 Ki): 0.198 nM; Ki (plasmepsin II): 2.4 nM |
